Reference: PubChem BioAssay (NCI)
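Where inhibition never reached the appropriate level, the endpoint shown equals the highest concentration tested. Otherwise, values were interpolated linearly from a five-concentration, 48-hour dose response in 96-well plates. TGI denotes the concentration required for complete inhibition of growth.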

Tests used:
Assay in all cases: DTP human tumour cell line panel, 48 h
[1] = test system: SF-268 CNS
[2] = test system: SK-OV-3 ovarian
[3] = test system: HCT-116 colon
[4] = test system: HCC-2998 colon
[5] = test system: COLO 205 colon
[6] = test system: ACHN renal
[7] = test system: HT29 colon
[8] = test system: SK-MEL-28 melanoma
[9] = test system: A549 NSCLC
[10] = test system: UACC-257 melanoma
[11] = test system: UACC-62 melanoma
[12] = test system: SF-539 CNS
[13] = test system: DU-145 prostate
[14] = test system: SK-MEL-2 melanoma
[15] = test system: MALME-3M melanoma
[16] = test system: CAKI-1 renal
[17] = test system: LOX IMVI melanoma
[18] = test system: HCT-15 colon
[19] = test system: OVCAR-8 ovarian
[20] = test system: NCI-H522 lung
[21] = test system: OVCAR-3 ovarian
[22] = test system: SR leukemia
[23] = test system: MOLT-4 leukemia
[24] = test system: IGROV1 ovarian
[25] = test system: BT-549 breast
[26] = test system: CCRF-CEM leukemia
[27] = test system: K-562 leukemia
[28] = test system: UO-31 renal
[29] = test system: SNB-19 CNS
[30] = test system: EKVX NSCLC
[31] = test system: MDA-MB-435
[32] = test system: SW-620 colon
[33] = test system: PC-3 prostate
[34] = test system: NCI-H23 lung
[35] = test system: SK-MEL-5 melanoma
[36] = test system: NCI/ADR-RES ovarian
[37] = test system: A498 renal
[38] = test system: HS 578T breast
[39] = test system: SF-295 CNS
[40] = test system: HL-60(TB) leukemia
[41] = test system: KM12 colon
[42] = test system: MCF7 breast
[43] = test system: HOP-62 NSCLC
[44] = test system: NCI-H460 lung
[45] = test system: M14 melanoma
[46] = test system: RPMI-8226 leukemia
[47] = test system: 786-0 renal
[48] = test system: U251 CNS
[49] = test system: OVCAR-4 ovarian
[50] = test system: MDA-N
[51] = test system: OVCAR-5 ovarian

COC(=O)[C@](NC(=O)OCc1ccccc1)([C@@H](C)Sc1ccc(C)cc1)C(F)(F)F
TGI [1]: > 100 µM | TGI [2]: > 100 µM | TGI [3]: > 100 µM | TGI [4]: > 100 µM | TGI [5]: 38.4 µM | TGI [6]: > 100 µM | TGI [7]: > 100 µM | TGI [8]: > 100 µM | TGI [9]: > 100 µM | TGI [10]: > 100 µM | TGI [11]: > 100 µM | TGI [12]: > 100 µM | TGI [13]: > 100 µM | TGI [14]: > 100 µM | TGI [15]: > 100 µM | TGI [16]: > 100 µM | TGI [17]: > 100 µM | TGI [18]: > 100 µM | TGI [19]: 60 µM | TGI [20]: > 100 µM | TGI [21]: > 100 µM | TGI [22]: > 100 µM | TGI [23]: > 100 µM | TGI [24]: > 100 µM | TGI [25]: > 100 µM | TGI [26]: 50.7 µM | TGI [27]: > 100 µM | TGI [28]: > 100 µM | TGI [29]: > 100 µM | TGI [30]: > 100 µM | TGI [31]: > 100 µM | TGI [32]: > 100 µM | TGI [33]: > 100 µM | TGI [34]: 58.5 µM | TGI [35]: 38.2 µM | TGI [36]: > 100 µM | TGI [37]: > 100 µM | TGI [38]: > 100 µM | TGI [39]: > 100 µM | TGI [40]: 78.3 µM | TGI [41]: > 100 µM | TGI [42]: > 100 µM | TGI [43]: > 100 µM | TGI [44]: > 100 µM | TGI [45]: > 100 µM | TGI [46]: > 100 µM | TGI [47]: > 100 µM | TGI [48]: > 100 µM | TGI [49]: > 100 µM | TGI [50]: > 100 µM | TGI [51]: > 100 µM
